Entries after “also recorded” stand apart in the source; their conditions may differ.
Columns and labels:
[1] = system: dorsal hemisection spinal cord injury; test: Spinal cord injury, T8 dorsal hemisection / over dorsal hemisection, BBB locomotor score; assay type: in vivo, Sprague-Dawley rats; conditions: rats
Protocol: Compound A was tested in both the rat dorsal hemisection (Guth, L. et al. (1980), J. Neurosurgery 52: 73-86) and contusion models (Scheff, S. W. (2003), J. Neurotrauma 20: 179-193) for evaluation of efficacy. These models are widely used in the field of spinal cord injury and replicate many of the pathological aspects found in humans who have sustained a spinal cord injury. Rats were subjected to an experimental spinal cord injury at T8, and were given Compound A shortly thereafter. Behavioral tests to assess the locomotion deficits were performed after the lesion. At the end of the experiment, animals were sacrificed and the spinal cord was collected for histopathological analysis. […] Histological assessment of the tissue at the site of injury was also made in both the drug treated and untreated group. In particular, subsequent to the behavioral measurement, spinal cord tissue from each animal was obtained and serial transverse tissue sections were stained with either anti-neurofilament antibody or antibodies specific for the inflammatory markers, tumor necrosis factor alpha (TNFα) and for the inducible form of nitric oxide synthetase (iNOS), followed by incubation with Alexa Fluor®-conjugated secondary antibodies.
Female rats (Sprague-Dawley, 250-300 g) were purchased from Charles River. One week before spinal cord injury, the animals were both trained and had baseline measures taken on a locomotor behavioral test, the BBB test (Beattie Basso Bresnahan method) (Basso, D. M. et al. (1995), J. Neurotrauma 12(1): 1-21).
The BBB score is a 21-point scale representing 21 stages of locomotor recovery after spinal cord injury. The scale is based on unique combinations of scored behaviors, ranked according to time of appearance after injury. The score can be divided into three parts: from 0-8, the scores emphasize voluntary movements of hindlimb joints; from 8-14, the scores represent standing and stepping with progressively better forelimb-hindlimb coordination; from 15-21, the scores indicate greater strength and better foot placement and balance. […]

[2] = PK parameter estimates, 30 mg/kg po in 1% methyl cellulose; assay type: in vivo, rats
From the text: The time course of plasma concentration of compound N is depicted in FIG. 1 as well.

[3] = Brain-blood distribution of Compound A in the squirrel monkey; assay type: in vivo; conditions: brain / whole blood, twice-daily 10 mg/kg po for 5 weeks, 24 h post-dose, n = 12, read-out: Brain/Blood Ratio (Mean ± SD)
Protocol: Blood-brain distribution of Compound A was assessed in the mouse, rat, and squirrel monkey by determining the concentrations of Compound A in blood and brain tissue at specific times post dose. Rats and mice received a single po dose of 30 mg/kg. The monkeys received a twice-daily 10 mg/kg po dose of Compound A for a total of 5 weeks prior to sacrifice. Brain to blood ratios for Compound A, as shown below in Table 4, show high penetration of the blood-brain barrier.

[4] = rat, plasma, rats, 30 mg/kg po in 1% methyl cellulose, n = 3

In the case of `CC(=O)Nc1ccc(C(=O)NC(C)(C)C)cc1` [Compound A, N-tert-butyl-4-acetamidobenzamide], the “neurological function, BBB score” value ([1]; SCI Study No. 1, 14 day dorsal hemisection (1.5 mm), i.p. BID 5 days, 75% PEG200 formulation) is reported as “significant improvement in neurological function”, the “neurological function, BBB score” value ([1]; SCI Study No. 2, 21 day over dorsal hemisection (2 mm), 20 mg/kg BID i.p. 5 days, 75% PEG200 formulation) is reported as “significant improvement in neurological function” and the “neurological function, BBB score” value ([1]; SCI Study No. 3, 5 week over dorsal hemisection, 20 mg/kg BID i.p. 5 days, 50% PEG400/25% ETOH/25% dH2O, 20 mg/kg) is reported as “significant improvement in neurological function; also recorded: robust acute and long-term effects up to 5 weeks”. For the same compound, the “bioavailability (in words)” value ([2]; additional series of bioavailability experiments) was “excellent bioavailability”, the AUC(0-inf) [2, 4] was 745 µg·h/mL and the Cmax [2, 4] was 34000 ng/mL. For the same compound, the Tmax [2, 4] was 8 h, the half-life ([2]; rat, plasma, rats, 30 mg/kg po in 1% methyl cellulose, n = 3, read-out: Elim.t1/2 (converted)) was 11 h and the Kp at 24 h [3] was 0.88 ± 0.09.
